From patent publication US20230331673A1, “COMPOSITION OF COMPOUNDS THAT MODULATE CELL METABOLISM AND METHODS OF USE” (CRESCENTA BIOSCIENCES, priority 2020, published 2023) come the findings set out here.

For assay [1], the system named is differentiated 3T3-L1 mouse adipocyte cells. Put plainly: Adipocyte glucose consumption in differentiated 3T3-L1 mouse adipocyte cells (loss of glucose from medium, colorimetric). The class given is cell-based. The note with it: compound 10 μM, 22 to 24 hours, differentiated 3T3-L1 adipocytes, compound/DMSO, read-out: Glucose consumption (fold change) Mean. Summed up:
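3T3-L1 cells were differentiated with rosiglitazone, dexamethasone, IBMX and insulin, then used on day 11 or 12. Medium glucose was measured colorimetrically, and consumption was given as mean fold change versus DMSO ± SD.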

Assay [2] deals with T1, His6 tagged human recombinant FABP4 (Homo sapiens, UniProt P15090).
T1 construct: purchased Cayman Chemicals 10009549
T1 sequence (P15090 whole entry): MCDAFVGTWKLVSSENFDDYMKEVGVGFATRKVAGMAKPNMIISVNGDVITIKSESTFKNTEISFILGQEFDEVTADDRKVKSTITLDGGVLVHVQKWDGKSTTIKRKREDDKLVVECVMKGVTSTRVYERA
Put plainly: FABP4 Tb TR-FRET assay: displacement of BODIPY FL C12 fatty acid from His6-FABP4. The note with it: triplicates, inhibition of BODIPY FL C12 binding. An excerpt:
Activity of compounds with FABP4 was profiled using a Terbium (Tb) based time resolved fluorescence energy transfer (TR-FRET) assay. The assay measures the compound mediated displacement of the fluorescent fatty acid BODIPY FL C12 (Thermo Fisher; catalog number D3822) from His6 tagged human recombinant FABP4 (His6-FABP4; Cayman Chemicals, catalog number 10009549) via recording the energy transfer from TB donor molecule on anti-His6-tag antibody to acceptor BODIPY moiety. Briefly, compounds were prepared at a concentration of 0.362 mM and 0.0362 mM, and BODIPY FL C12 was prepared at 4.2 μM, in DMSO. 1.2 μL of each compound or DMSO (vehicle control) and 1.2 μL of BODIPY FL C12 were added into the wells of a 384-well black polypropylene plate. His6-FABP4 and Tb anti-His6 antibody were prepared in the assay buffer (25 mM Tris/HCl, pH 7.4, 0.4 mg/ml γ-globulins, 0.010% NP-40, 1 mM DTT) at a concentration of 83 nM and 49.6 nM, respectively. The protein and antibody solutions were then mixed at a ratio of 34:7 (v/v) and incubated on ice for 30 minutes. The assay was initiated by adding 41 μL of the resulting protein/antibody solution into the wells containing the compounds and BODIPY FL C12. The plate was centrifuged and incubated at room temperature for 10 min. The TR-FRET signals were recorded using an EnVision Multilabel plate reader (PerkinElmer; TB excitation 320 nm, BODIPY FL C12 emission 520 nm; TB emission 615 nm). Relative fluorescence ratio (520 nm*10,000/615 nm) were used to calculate the compound mediated inhibition of BODIPY C12 FL fatty acid binding to FABP4. […] Glucose consumption and FABP4 inhibition is shown below in Table 3 below.
On the technique in general: In TR-FRET formats the signal depends on donor and acceptor labels being close together.

On to `CCCCCCC1CCCc2c(n(Cc3ccc4ocnc4c3)c3c(C(=O)O)cccc23)C1` (stereo not shown) [5-[(1,3-benzoxazol-5-yl)methyl]-7-hexyl-5H,6H,7H,8H,9H,10H-cyclohepta[b]indole-4-carboxylic acid], for which the fold induction at 10 µM in assay [1] was 0.87. In addition, the inhibition at 1 µM in assay [2] (1 μM compound) is 88%.
On to `CCCCCCC1CCCc2c(n(Cc3ccccc3C#N)c3c(C(=O)O)cccc23)C1` (stereo not shown) [5-[(2-cyanophenyl)methyl]-7-hexyl-5H,6H,7H,8H,9H,10H-cyclohepta[b]indole-4-carboxylic acid], for which the fold induction at 10 µM in assay [1] worked out at 0.91. The inhibition at 1 µM in assay [2] (1 μM compound) came to 88.5%.
With `CCCCCCC1CCCc2c(n(Cc3cc(C#N)cs3)c3c(C(=O)O)cccc23)C1` (stereo not shown) [5-[(4-cyanothiophen-2-yl)methyl]-7-hexyl-5H,6H,7H,8H,9H,10H-cyclohepta[b]indole-4-carboxylic acid], in assay [2] (1 μM compound), the inhibition at 1 µM was 83.3%. Besides, the inhibition at 10 µM in assay [2] (10 μM compound) is 89.4%.
With `CCCCCCC1CCCc2c(n(Cc3cccc(OC)c3)c3c(C(=O)O)cccc23)C1` (stereo not shown) [7-hexyl-5-[(3-methoxyphenyl)methyl]-5H,6H,7H,8H,9H,10H-cyclohepta[b]indole-4-carboxylic acid], in assay [1], the fold induction at 10 µM was found to be 1.13. The inhibition at 1 µM in assay [2] (1 μM compound) is 93.2%.
Take `CCCCCCC1CCCc2c(n(Cc3cccc(C(F)(F)F)n3)c3c(C(=O)O)cccc23)C1` (stereo not shown) [7-hexyl-5-{[6-(trifluoromethyl)pyridin-2-yl]methyl}-5H,6H,7H,8H,9H,10H-cyclohepta[b]indole-4-carboxylic acid]: in assay [2] (1 μM compound), the inhibition at 1 µM stood at 79.7%.
`CCCCCCC1CCc2c(n(Cc3cccc(C(=O)O)c3)c3c(C(=O)O)cccc23)C1` (stereo not shown) [9-[(3-carboxyphenyl)methyl]-2-hexyl-2,3,4,9-tetrahydro-1H-carbazole-8-carboxylic acid]: the fold induction at 10 µM in assay [1] turned out to be 1.01. The “FABP4 inhibition (%) at 1 μM Mean” value in assay [2] (1 μM compound) amounted to 42.40%. For the same molecule, the “FABP4 inhibition (%) at 10 μM Mean” value in assay [2] (10 μM compound) was determined as 80.24%.
In the case of `N#Cc1cccc(Cn2c3c(c4cccc(C(=O)O)c42)CCC(CCc2ccccc2)C3)c1` (stereo not shown) [9-[(3-cyanophenyl)methyl]-2-(2-phenylethyl)-2,3,4,9-tetrahydro-1H-carbazole-8-carboxylic acid], the inhibition at 1 µM in assay [2] (1 μM compound) was found to be 92.7%.

One may read the inhibition as the change of the read-out against control, counted positive when it falls.
